Data reported in PubChem BioAssay AID1963421 (Molecular Pharmacology Branch, DTP, NCI, 2024).
Values joined by “and” are separate entries in the source; they are usually repeats but may differ in a detail not shown here. Equal entries are not always repeated.

System: 519858-162-T-J1-PDC complex spheroid growth, % test/control
Assay: Anticancer human tumor 519858-162-T-J1-PDC patient-derived colon adenocarcinoma cell line growth inhibition [Asc]
Settings: for viability, T/C: stronger effect = lower value
In short: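 Stromal components (HUVEC and hMSC) are co-assembled with the cancer cells into multicellular spheroids. Drugs are then added singly or paired, at concentrations falling by half-log increments from a clinically achievable maximum, capped at 10 microM without known Cmax.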

[1] = curve of first compound, second compound 0.0316 µM
[2] = curve of first compound, second compound 0.1 µM
[3] = curve of first compound, second compound 0.316 µM
[4] = curve of first compound, second compound 1 µM
[5] = curve of first compound, second compound 3.16 µM
[6] = curve of first compound, second compound 10 µM
[7] = second compound 0.0316 µM, first compound 0.0316 µM
[8] = second compound 0.0316 µM, first compound 0.1 µM
[9] = second compound 0.0316 µM, first compound 0.316 µM
[10] = second compound 0.0316 µM, first compound 1 µM
[11] = second compound 0.0316 µM, first compound 3.16 µM
[12] = second compound 0.0316 µM, first compound 10 µM
[13] = second compound 0.1 µM, first compound 0.0316 µM
[14] = second compound 0.1 µM, first compound 0.1 µM
[15] = second compound 0.1 µM, first compound 0.316 µM
[16] = second compound 0.1 µM, first compound 1 µM
[17] = second compound 0.1 µM, first compound 3.16 µM
[18] = second compound 0.1 µM, first compound 10 µM
[19] = second compound 0.316 µM, first compound 0.0316 µM
[20] = second compound 0.316 µM, first compound 0.1 µM
[21] = second compound 0.316 µM, first compound 0.316 µM
[22] = second compound 0.316 µM, first compound 1 µM
[23] = second compound 0.316 µM, first compound 3.16 µM
[24] = second compound 0.316 µM, first compound 10 µM
[25] = second compound 1 µM, first compound 0.0316 µM
[26] = second compound 1 µM, first compound 0.1 µM
[27] = second compound 1 µM, first compound 0.316 µM
[28] = second compound 1 µM, first compound 1 µM
[29] = second compound 1 µM, first compound 3.16 µM
[30] = second compound 1 µM, first compound 10 µM
[31] = second compound 3.16 µM, first compound 0.0316 µM
[32] = second compound 3.16 µM, first compound 0.1 µM
[33] = second compound 3.16 µM, first compound 0.316 µM
[34] = second compound 3.16 µM, first compound 1 µM
[35] = second compound 3.16 µM, first compound 3.16 µM
[36] = second compound 3.16 µM, first compound 10 µM
[37] = second compound 10 µM, first compound 0.0316 µM
[38] = second compound 10 µM, first compound 0.1 µM
[39] = second compound 10 µM, first compound 0.316 µM
[40] = second compound 10 µM, first compound 1 µM
[41] = second compound 10 µM, first compound 3.16 µM
[42] = second compound 10 µM, first compound 10 µM
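Note: seven day drug exposure begun three days after spheroid seeding.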
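Throughout, for viability, T/C: 100% = DMSO vehicle wells and lower values mean less viable spheroid.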

In the case of NC(=O)C(=Cn1cnc(-c2cc(C(F)(F)F)cc(C(F)(F)F)c2)n1)c1cncnc1 + CCN1C(C(=O)NC23CCC(C(=O)O)(CC2)CC3)C(c2cccc(Cl)c2F)C2(C(=O)Nc3cc(Cl)ccc32)C12CCCCC2, the IC50 (curve of first compound, second compound 0.00949 µM) is reported as greater than 0.3 µM, the IC50 (curve of first compound, second compound 0.03 µM) is reported as greater than 0.3 µM and the IC50 (curve of first compound, second compound 0.0949 µM) is reported as greater than 0.3 µM. It also gave an IC50 (curve of first compound, second compound 0.3 µM) greater than 0.3 µM, an IC50 (curve of first compound, second compound 0.949 µM) greater than 0.3 µM and an IC50 (curve of first compound, second compound 3 µM) greater than 0.3 µM. It also gave a viability, T/C (second compound 0.00949 µM, first compound 0.000949 µM) of 102%, a viability, T/C (second compound 0.00949 µM, first compound 0.003 µM) of 94.8% and a viability, T/C (second compound 0.00949 µM, first compound 0.00949 µM) of 56.9%. For the same compound, the viability, T/C (second compound 0.00949 µM, first compound 0.03 µM) was 69.6%, the viability, T/C (second compound 0.00949 µM, first compound 0.0949 µM) was 65.8% and the viability, T/C (second compound 0.00949 µM, first compound 0.3 µM) was 81.9%. It also gave a viability, T/C (second compound 0.03 µM, first compound 0.000949 µM) of 87.2%, a viability, T/C (second compound 0.03 µM, first compound 0.003 µM) of 81% and a viability, T/C (second compound 0.03 µM, first compound 0.00949 µM) of 94.5%. It also gave a viability, T/C (second compound 0.03 µM, first compound 0.03 µM) of 81.4%, a viability, T/C (second compound 0.03 µM, first compound 0.0949 µM) of 63.5% and a viability, T/C (second compound 0.03 µM, first compound 0.3 µM) of 53.8%. For the same compound, the viability, T/C (second compound 0.0949 µM, first compound 0.000949 µM) was 87.5%, the viability, T/C (second compound 0.0949 µM, first compound 0.003 µM) was 94.5% and the viability, T/C (second compound 0.0949 µM, first compound 0.00949 µM) was 94.3%. It also gave a viability, T/C (second compound 0.0949 µM, first compound 0.03 µM) of 63.8%, a viability, T/C (second compound 0.0949 µM, first compound 0.0949 µM) of 63.4% and a viability, T/C (second compound 0.0949 µM, first compound 0.3 µM) of 63%. It also gave a viability, T/C (second compound 0.3 µM, first compound 0.000949 µM) of 75.5%, a viability, T/C (second compound 0.3 µM, first compound 0.003 µM) of 73.2% and a viability, T/C (second compound 0.3 µM, first compound 0.00949 µM) of 70.8%. It also gave a viability, T/C (second compound 0.3 µM, first compound 0.03 µM) of 88.2%, a viability, T/C (second compound 0.3 µM, first compound 0.0949 µM) of 45.1% and a viability, T/C (second compound 0.3 µM, first compound 0.3 µM) of 85.9%. It also gave a viability, T/C (second compound 0.949 µM, first compound 0.000949 µM) of 69.5%, a viability, T/C (second compound 0.949 µM, first compound 0.003 µM) of 71.9% and a viability, T/C (second compound 0.949 µM, first compound 0.00949 µM) of 58.3%. It also gave a viability, T/C (second compound 0.949 µM, first compound 0.03 µM) of 78.7%, a viability, T/C (second compound 0.949 µM, first compound 0.0949 µM) of 85.4% and a viability, T/C (second compound 0.949 µM, first compound 0.3 µM) of 79.2%. For the same compound, the viability, T/C (second compound 3 µM, first compound 0.000949 µM) was 69%, the viability, T/C (second compound 3 µM, first compound 0.003 µM) was 81.2% and the viability, T/C (second compound 3 µM, first compound 0.00949 µM) was 59%. It also gave a viability, T/C (second compound 3 µM, first compound 0.03 µM) of 65.5%, a viability, T/C (second compound 3 µM, first compound 0.0949 µM) of 91.2% and a viability, T/C (second compound 3 µM, first compound 0.3 µM) of 82.1%.

COc1c(OCCCN2CCOCC2)ccc2c3n(c(=NC(=O)c4cnc(N)nc4)nc12)CCN3 was tested, and the viability, T/C (compound 0.00316 µM) was 88.7% and 89.2% and 87.3%, the viability, T/C (compound 0.01 µM) was 106% and 82.6% and 84% and the viability, T/C (compound 0.0316 µM) was 91.1% and 79.6% and 45.8%. The viability, T/C (compound 0.1 µM) was 62.9% and 81.2% and 48.9%, the viability, T/C (compound 0.316 µM) was 50.7% and 65.9% and 55.2% and the viability, T/C (compound 1 µM) was 29.3% and 51.5% and 45.5%.

With Cc1c(S(C)(=O)=O)c(-c2cc(F)cc(N3CCN(c4ccc(NS(=O)(=O)c5ccc(NC(CCN6CCC(C(=O)OCCCP(=O)(O)O)CC6)CSc6ccccc6)c(S(=O)(=O)C(F)(F)F)c5)cc4)CC3)c2)c(-c2ccc(Cl)cc2)n1C(C)C (configuration not stated) the viability, T/C (compound 0.0316 µM) was 89.8% [middle of 7 runs], the viability, T/C (compound 1 µM) was 95.1% [middle of 7 runs] and the IC50 (compound alone, run of 11/07/2022) was greater than 10 µM.

In the case of NC1CCC(NC2CC2c2ccccc2)CC1 (configuration not stated), the viability, T/C (compound 0.000316 µM) is reported as 104% and 97.4% and 118%, the viability, T/C (compound 0.001 µM) is reported as 95.6% and 118% and 95.5% and the viability, T/C (compound 0.00316 µM) is reported as 86.1% and 99% and 95.9%. For the same compound, the viability, T/C (compound 0.01 µM) was 99.9% and 127% and 86.2%, the viability, T/C (compound 0.0316 µM) was 129% and 85.6% and 94.6% and the viability, T/C (compound 0.1 µM) was 113% and 111% and 102%. For the same compound, the IC50 (curve of compound) was greater than 0.1 µM.

C=C(F)C(=O)N1CCN(c2nc(OCC3CCCN3C)nc3c2CCN(c2cccc4cccc(Cl)c24)C3)CC1CC#N (configuration not stated) + Cc1c(S(C)(=O)=O)c(-c2cc(F)cc(N3CCN(c4ccc(NS(=O)(=O)c5ccc(NC(CCN6CCC(C(=O)OCCCP(=O)(O)O)CC6)CSc6ccccc6)c(S(=O)(=O)C(F)(F)F)c5)cc4)CC3)c2)c(-c2ccc(Cl)cc2)n1C(C)C was tested, and the IC50 [1] was less than 0.0316 µM, the IC50 [2] was 9.04 µM and the IC50 [3] was 6.37 µM. The IC50 [4] was 5.09 µM, the IC50 [5] was 2.51 µM and the IC50 [6] was 2.69 µM. The viability, T/C [7] was 43.8%, the viability, T/C [8] was 78.2% and the viability, T/C [9] was 94.3%. For the same compound, the viability, T/C [10] was 98.9%, the viability, T/C [11] was 82.6% and the viability, T/C [12] was 64.9%. For the same compound, the viability, T/C [13] was 115%, the viability, T/C [14] was 111% and the viability, T/C [15] was 103%. It also gave a viability, T/C [16] of 89%, a viability, T/C [17] of 84.8% and a viability, T/C [18] of 45.3%. It also gave a viability, T/C [19] of 95.9%, a viability, T/C [20] of 102% and a viability, T/C [21] of 88%. For the same compound, the viability, T/C [22] was 70.2%, the viability, T/C [23] was 61.9% and the viability, T/C [24] was 43.5%. The viability, T/C [25] was 102%, the viability, T/C [26] was 84.7% and the viability, T/C [27] was 116%. For the same compound, the viability, T/C [28] was 86.5%, the viability, T/C [29] was 62.8% and the viability, T/C [30] was 33.2%. It also gave a viability, T/C [31] of 86.9%, a viability, T/C [32] of 74.1% and a viability, T/C [33] of 81.8%. The viability, T/C [34] was 61.1%, the viability, T/C [35] was 47.9% and the viability, T/C [36] was 13.5%. For the same compound, the viability, T/C [37] was 86.7%, the viability, T/C [38] was 66.5% and the viability, T/C [39] was 72.4%. It also gave a viability, T/C [40] of 62.3%, a viability, T/C [41] of 51.4% and a viability, T/C [42] of 3.12%.

With C#Cc1c(F)ccc2cc(O)cc(-c3ncc4c(N5CC6CCC(C5)N6)nc(OCC56CCCN5CC(F)C6)nc4c3F)c12 (configuration not stated) + Cc1c(S(C)(=O)=O)c(-c2cc(F)cc(N3CCN(c4ccc(NS(=O)(=O)c5ccc(NC(CCN6CCC(C(=O)OCCCP(=O)(O)O)CC6)CSc6ccccc6)c(S(=O)(=O)C(F)(F)F)c5)cc4)CC3)c2)c(-c2ccc(Cl)cc2)n1C(C)C the IC50 [1] was greater than 10 µM, the IC50 [2] was greater than 10 µM and the IC50 [3] was greater than 10 µM. For the same compound, the IC50 [4] was greater than 10 µM, the IC50 [5] was greater than 10 µM and the IC50 [6] was greater than 10 µM. The viability, T/C [7] was 117%, the viability, T/C [8] was 88.2% and the viability, T/C [9] was 89.7%. The viability, T/C [10] was 89.5%, the viability, T/C [11] was 81.6% and the viability, T/C [12] was 83.9%. For the same compound, the viability, T/C [13] was 60.5%, the viability, T/C [14] was 109% and the viability, T/C [15] was 105%. It also gave a viability, T/C [16] of 99.7%, a viability, T/C [17] of 87.1% and a viability, T/C [18] of 89.6%. The viability, T/C [19] was 88.2%, the viability, T/C [20] was 88.3% and the viability, T/C [21] was 82.6%. For the same compound, the viability, T/C [22] was 77.3%, the viability, T/C [23] was 64.6% and the viability, T/C [24] was 56.9%. For the same compound, the viability, T/C [25] was 84.4%, the viability, T/C [26] was 75.1% and the viability, T/C [27] was 84%. The viability, T/C [28] was 58.2%, the viability, T/C [29] was 78.7% and the viability, T/C [30] was 82.7%. For the same compound, the viability, T/C [31] was 70.6%, the viability, T/C [32] was 79.9% and the viability, T/C [33] was 58.9%. For the same compound, the viability, T/C [34] was 57.3%, the viability, T/C [35] was 95.8% and the viability, T/C [36] was 67.8%. It also gave a viability, T/C [37] of 62.9%, a viability, T/C [38] of 66.2% and a viability, T/C [39] of 65.9%. For the same compound, the viability, T/C [40] was 56.6%, the viability, T/C [41] was 60.1% and the viability, T/C [42] was 77.5%.
